Reference: US9694016B2 (Novartis AG, priority 2013, dated 2017)

molecular target: b-Raf (V600E) (Homo sapiens (Human), UniProt P15056, V600E); conditions: read-out: b-Raf IC-50; AlphaScreen, 60 min pre-incubation, 3 hours reaction
Sequence (P15056 whole entry V600E): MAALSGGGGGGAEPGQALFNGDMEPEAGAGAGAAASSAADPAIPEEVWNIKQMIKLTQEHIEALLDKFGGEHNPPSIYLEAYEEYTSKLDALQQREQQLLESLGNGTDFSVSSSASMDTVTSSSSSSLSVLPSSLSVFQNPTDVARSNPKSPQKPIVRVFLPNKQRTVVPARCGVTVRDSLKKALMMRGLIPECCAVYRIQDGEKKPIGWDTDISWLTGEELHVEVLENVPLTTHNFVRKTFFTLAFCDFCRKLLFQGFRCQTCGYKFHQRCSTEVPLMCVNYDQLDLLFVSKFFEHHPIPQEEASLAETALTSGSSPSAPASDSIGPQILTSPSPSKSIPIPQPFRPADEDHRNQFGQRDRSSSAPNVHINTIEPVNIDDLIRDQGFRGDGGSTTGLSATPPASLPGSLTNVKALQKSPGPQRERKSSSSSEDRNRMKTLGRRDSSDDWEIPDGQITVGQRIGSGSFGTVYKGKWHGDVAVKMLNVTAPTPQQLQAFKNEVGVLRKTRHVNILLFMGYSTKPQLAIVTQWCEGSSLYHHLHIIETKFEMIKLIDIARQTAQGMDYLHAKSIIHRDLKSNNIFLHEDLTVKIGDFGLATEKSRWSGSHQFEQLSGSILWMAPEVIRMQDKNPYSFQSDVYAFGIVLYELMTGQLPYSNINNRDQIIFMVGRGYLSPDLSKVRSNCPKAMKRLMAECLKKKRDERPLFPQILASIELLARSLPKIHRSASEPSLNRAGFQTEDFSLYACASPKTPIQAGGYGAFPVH

| IC50 [nM] | SMILES |
| --- | --- |
| 0.5 | CCNc1nc(-c2cc(NC(=O)c3ccnc(C4(C#N)CC4)c3)ccc2C)cc(N2CCOCC2)n1 [Example 708, 2-(1-cyanocyclopropyl)-N-(3-(2-(ethylamino)-6-morpholinopyrimidin-4-yl)-4-methylphenyl)isonicotinamide] |
| 0.7 | CCNc1nc(-c2cc(NC(=O)c3cccc(C(F)F)c3)ccc2C)cc(N2CCOCC2)n1 [Example 698, 3-(difluoromethyl)-N-(3-(2-(ethylamino)-6-morpholinopyrimidin-4-yl)-4-methylphenyl)benzamide] |
| 1.8 | Cc1ncc(NC(=O)c2ccnc(C(C)(F)F)c2)cc1-c1cc(N2CCOCC2)c(OC2CCOCC2)nn1 [Example 628, 2-(1,1-difluoroethyl)-N-(6-methyl-5-(5-morpholino-6-((tetrahydro-2H-pyran-4-yl)oxy)pyridazin-3-yl)pyridin-3-yl)isonicotinamide] |
| 1 | Cc1ccc(NC(=O)c2cccc(C(F)(F)F)c2)cc1-c1cc(N2CCOCC2)nc(N2CC(O)C2)n1 [Example 765, N-(3-(2-(3-hydroxyazetidin-1-yl)-6-morpholinopyrimidin-4-yl)-4-methylphenyl)-3-(trifluoromethyl)benzamide] |
| 0.2 | Cc1ccc(NC(=O)c2cccc(C(F)F)c2)cc1-c1cc(N2CCOCC2)c2nccn2n1 [Example 847, 3-(difluoromethyl)-N-(4-methyl-3-(8-morpholinoimidazo[1,2-b]pyridazin-6-yl)phenyl)benzamide] |
| 14.6 | Cc1ncc(NC(=O)c2ccnc(C(F)F)c2)cc1-c1cc(N2CCOCC2)c(=O)n(C)n1 [Example 680, 2-(difluoromethyl)-N-(6-methyl-5-(1-methyl-5-morpholino-6-oxo-1,6-dihydropyridazin-3-yl)pyridin-3-yl)isonicotinamide] |
| 2.9 | Cc1ccc(NC(=O)c2ccnc(C(C)(F)F)c2)cc1-c1cc(N2CCOC[C@@H]2C)c(=O)n(C)n1 [Example 664, (S)-2-(1,1-difluoroethyl)-N-(4-methyl-3-(1-methyl-5-(3-methylmorpholino)-6-oxo-1,6-dihydropyridazin-3-yl)phenyl)isonicotinamide] |
| 0.8 | CCNc1nc(-c2cc(C(=O)Nc3cccc(C(F)F)c3)ccc2C)cc(N2CCOCC2)n1 [Example 733, N-(3-(difluoromethyl)phenyl)-3-(2-(ethylamino)-6-morpholinopyrimidin-4-yl)-4-methylbenzamide] |
| 1.3 | CCOc1nnc(-c2cc(NC(=O)c3ccnc(C(C)(F)F)c3)ccc2C)cc1N1CCOCC1 [Example 565, 2-(1,1-difluoroethyl)-N-(3-(6-ethoxy-5-morpholinopyridazin-3-yl)-4-methylphenyl)isonicotinamide] |
| 0.5 | Cc1ccc(NC(=O)c2cc(C(F)(F)F)ccn2)cc1-c1cc(N2CCOCC2)c(OC2CCOCC2)nn1 [Example 580, N-(4-methyl-3-(5-morpholino-6-((tetrahydro-2H-pyran-4-yl)oxy)pyridazin-3-yl)phenyl)-4-(trifluoromethyl)picolinamide] |
| 4.5 | Cc1ccc(NC(=O)c2cnnc(C(F)(F)F)c2)cc1-c1cc(N2CCOCC2)n(C)c(=O)c1 [Example 495, N-(4-methyl-3-(1-methyl-6-morpholino-2-oxo-1,2-dihydropyridin-4-yl)phenyl)-6-(trifluoromethyl)pyridazine-4-carboxamide] |
| 0.4 | Cc1ccc(NC(=O)c2cccc(C(F)F)c2)cc1-c1cc(N2CCOCC2)n(C)c(=O)c1 [Example 484, 3-(difluoromethyl)-N-(4-methyl-3-(1-methyl-6-morpholino-2-oxo-1,2-dihydropyridin-4-yl)phenyl)benzamide] |
| 42.7 | Cc1ncc(NC(=O)c2ccnc(C(C)(C)C#N)c2)cc1-c1cc(N2CCOCC2)nc(N[C@@H](C)CO)n1 [Example 744, (S)-2-(2-cyanopropan-2-yl)-N-(5-(2-((1-hydroxypropan-2-yl)amino)-6-morpholinopyrimidin-4-yl)-6-methylpyridin-3-yl)isonicotinamide] |
| 6.9 | Cc1ccc(NC(=O)c2ccnc(C(C)(C)C#N)c2)cc1-c1cc(N2CCOCC2)nc(NCCO)n1 [Example 734, 2-(2-cyanopropan-2-yl)-N-(3-(2-((2-hydroxyethyl)amino)-6-morpholinopyrimidin-4-yl)-4-methylphenyl)isonicotinamide] |
| 1 | CCNc1nc(-c2cc(NC(=O)c3ccnc(C(F)(F)F)c3)ccc2C)cc(N2CCOCC2)n1 [Example 694, N-(3-(2-(ethylamino)-6-morpholinopyrimidin-4-yl)-4-methylphenyl)-2-(trifluoromethyl)isonicotinamide] |
| 2.9 | CCNCc1ccc(C(=O)Nc2ccc(C)c(-c3cc(N4CCOCC4)c(OCC)nn3)c2)cc1C(F)(F)F [Example 575, N-(3-(6-ethoxy-5-morpholinopyridazin-3-yl)-4-methylphenyl)-4-((ethylamino)methyl)-3-(trifluoromethyl)benzamide] |

same assay, conditions: read-out: b-Raf IC-50; AlphaScreen, 60 min pre-incubation, reaction 3 hours at room temperature

| IC50 [nM] | SMILES |
| --- | --- |
| 3.93 | Cc1ccc(NC(=O)c2ccnc(C(F)(F)F)c2)cc1-c1cc(N2CCOCC2)nc(N2CC(O)C2)c1 [Example 1060, N-(3-(2-(3-hydroxyazetidin-1-yl)-6-morpholinopyridin-4-yl)-4-methylphenyl)-2-(trifluoromethyl)isonicotinamide] |
| 9.15 | Cc1ncc(NC(=O)c2cc(C(C)(C)C#N)ccn2)cc1-c1cnc(OC(C)C)c(N2CCOCC2)c1 [Example 958, 4-(2-cyanopropan-2-yl)-N-(6′-isopropoxy-2-methyl-5′-morpholino-[3,3′-bipyridin]-5-yl)picolinamide] |
| 3.84 | Cc1ccc(NC(=O)c2ccnc(C(C)(C)C#N)c2)cc1-c1cc(N2CCOCC2)nc(N2CC(O)C2)c1 [Example 1059, 2-(2-cyanopropan-2-yl)-N-(3-(2-(3-hydroxyazetidin-1-yl)-6-morpholinopyridin-4-yl)-4-methylphenyl)isonicotinamide] |
| 2.33 | Cc1ccc(NC(=O)c2cc(C(C)(C)C#N)ccn2)cc1-c1cnc(OC(C)C)c(N2CCOCC2)c1 [Example 948, 4-(2-cyanopropan-2-yl)-N-(3-(6-isopropoxy-5-morpholinopyridin-3-yl)-4-methylphenyl)picolinamide] |
| 1.17 | Cc1ncc(NC(=O)c2cccc(C(F)(F)F)c2)cc1-c1cc(N2CCOCC2)c(OCC(F)F)nn1 [Example 918, N-(5-(6-(2,2-difluoroethoxy)-5-morpholinopyridazin-3-yl)-6-methylpyridin-3-yl)-3-(trifluoromethyl)benzamide] |
| 9.45 | Cc1ccc(NC(=O)c2cc(C(C)(C)O)ccn2)cc1-c1cc(N2CCOCC2)c(=O)n(C)c1 [Example 906, 4-(2-hydroxypropan-2-yl)-N-(4-methyl-3-(1-methyl-5-morpholino-6-oxo-1,6-dihydropyridin-3-yl)phenyl)picolinamide] |
| 0.43 | Cc1ccc(NC(=O)c2ccnc(C3CC3)c2)cc1-c1cc(OCCO)nc(N2CCOCC2)c1 [Example 1157, 2-cyclopropyl-N-(3-(2-(2-hydroxyethoxy)-6-morpholinopyridin-4-yl)-4-methylphenyl)isonicotinamide] |
| 6.23 | Cc1ncc(NC(=O)c2cc(C(C)(C)F)ccn2)cc1-c1cnc(OC(C)C)c(N2CCOCC2)c1 [Example 957, 4-(2-fluoropropan-2-yl)-N-(6′-isopropoxy-2-methyl-5′-morpholino-[3,3′-bipyridin]-5-yl)picolinamide] |
| 2.13 | CCC(F)(F)c1cc(C(=O)Nc2ccc(C)c(-c3cc(N4CCOCC4)c(S(C)(=O)=O)nn3)c2)ccn1 [Example 926, 2-(1,1-difluoropropyl)-N-(4-methyl-3-(6-(methylsulfonyl)-5-morpholinopyridazin-3-yl)phenyl)isonicotinamide] |
| 37 | Cc1ncc(NC(=O)c2cc(C(C)(C)O)ccn2)cc1-c1cnc(OCCO)c(N2CCOCC2)c1 [Example 972, N-(6′-(2-hydroxyethoxy)-2-methyl-5-morpholino-[3,3′-bipyridin]-5-yl)-4-(2-hydroxypropan-2-yl)picolinamide] |
| 4.53 | Cc1ncc(NC(=O)c2cccc(S(C)(=O)=O)c2)cc1-c1cnc(OC2CCOCC2)c(N2CCOCC2)c1 [Example 937, N-(2-methyl-5′-morpholino-6′-((tetrahydro-2H-pyran-4-yl)oxy)-[3,3′-bipyridin]-5-yl)-3-(methylsulfonyl)benzamide] |

same assay, conditions: read-out: b-Raf IC-50; Table 2; AlphaScreen, 3 hours reaction

| IC50 [nM] | SMILES |
| --- | --- |
| 1.8 | Cc1ncc(NC(=O)c2cccc(C(F)(F)F)c2)cc1-c1cnc(OCC(F)F)c(N2CCOCC2)c1 [Example 227, N-(6′-(2,2-difluoroethoxy)-2-methyl-5′-morpholino-[3,3′-bipyridin]-5-yl)-3-(trifluoromethyl)benzamide] |
| 10100 | Cn1cc(-c2cc(NC(=O)c3ccnc(C(F)(F)F)c3)ccc2C#N)cc(N2CCOCC2)c1=O [Example 415, N-(4-cyano-3-(1-methyl-5-morpholino-6-oxo-1,6-dihydropyridin-3-yl)phenyl)-2-(trifluoromethyl)isonicotinamide] |
| 23.2 | CCn1cc(-c2cc(NC(=O)c3ccnc(C(C)(C)C#N)c3)cnc2C)cc(N2CCOCC2)c1=O [Example 332, 2-(2-cyanopropan-2-yl)-N-(1′-ethyl-2-methyl-5′-morpholino-6′-oxo-1′,6′-dihydro-[3,3′-bipyridin]-5-yl)isonicotinamide] |
| 3.4 | Cc1ccc(NC(=O)c2ccnc(C3(C#N)CC3)c2)cc1-c1cc(N2CCOCC2)c(=O)n(C)c1 [Example 357, 2-(1-cyanocyclopropyl)-N-(4-methyl-3-(1-methyl-5-morpholino-6-oxo-1,6-dihydropyridin-3-yl)phenyl)isonicotinamide] |
| 100 | Cc1ccc(NC(=O)c2cn(C)nc2C)cc1-c1cc(N2CCOCC2)c(=O)n(C)c1 [Example 366, 1,3-dimethyl-N-(4-methyl-3-(1-methyl-5-morpholino-6-oxo-1,6-dihydropyridin-3-yl)phenyl)-1H-pyrazole-4-carboxamide] |
| 42.7 | Cc1ncc(NC(=O)c2ccnc(C(C)(C)C)c2)cc1-c1cc(N2CCOCC2)c(=O)n(C)c1 [Example 399, 2-(tert-butyl)-N-(1′,2-dimethyl-5′-morpholino-6′-oxo-1′,6′-dihydro-[3,3′-bipyridin]-5-yl)isonicotinamide] |
